# Experimental data from patent US7915402B2, “Antioxidant inflammation modulators: oleanolic acid derivatives with saturation in the C-ring” (Reata Pharmaceuticals, Inc., priority 2008, dated 2011).
# Experiments:
# [1] = test system: RAW264.7 macrophages; assay: Cell viability, WST-1 reagent; assay type: cell-based, mouse; settings: Mus musculus, RAW264.7 (20 ng/ml IFNγ)
# Outline: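 Cells pre-treated with DMSO or compound at various nM concentrations for 2 h, then stimulated with 20 ng/ml recombinant mouse IFNγ for 24 h. Nitrite in medium measured by Griess reagent; viability read by WST-1.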
# [2] = test system: HO-1; assay: Nrf2 target gene induction, HO-1 mRNA (qPCR); assay type: cell-based, human; settings: MDA-MB-435 cells, 250 nM; fold induction above DMSO control
# Description: FIGS. 17-20. Induction of HO-1. MDA-MB-435 human melanoma cells were treated with vehicle (DMSO) or the indicated compounds and concentrations for 16 hours. HO-1 mRNA levels were quantified using qPCR and were normalized relative to a DMSO-treated sample run in parallel. Values are averages of duplicate wells.
# (§1) FIG. 21. Induction of HO-1, TrxR1 and γ-GCS. MDA-MB-435 human melanoma cells were treated with vehicle (DMSO) or the indicated compounds and concentrations for 16 hours. HO-1, thioredoxin reductase-1 (TrxR1), and γ-glutamylcysteine synthetase (γ-GCS) mRNA levels were quantified using qPCR and were normalized relative to a DMSO-treated sample run in parallel. Values are averages of duplicate wells.
# (§2) Nrf2 target gene induction. MDA-MB-435 human melanoma cells were treated with vehicle (DMSO) or the indicated compounds and concentrations for 16 hours. HO-1, thioredoxin reductase-1 (TrxR1), γ-glutamylcysteine synthetase (γ-GCS), and ferritin heavy chain mRNA levels were quantified using qPCR and were normalized relative to a DMSO-treated sample run in parallel. Values are averages of duplicate wells. Primer sequences are as follows.
# [3] = test system: γ-glutamylcysteine synthetase (γ-GCS); assay: Nrf2 target gene induction, γ-GCS mRNA (qPCR); assay type: cell-based, human; settings: MDA-MB-435 cells
# Description: as §1
# FIG. 23. Induction of γ-GCS. MDA-MB-435 human melanoma cells were treated with vehicle (DMSO) or the indicated compounds and concentrations for 16 hours. γ-glutamylcysteine synthetase (γ-GCS) mRNA levels were quantified using qPCR and were normalized relative to a DMSO-treated sample run in parallel. Values are averages of duplicate wells.
# as §2
# [4] = test system: NQO1; assay: Nrf2 target gene induction, NQO1; assay type: cell-based, human; settings: MDA-MB-435 cells, 250 nM; fold induction above DMSO control
# [5] = test system: Ferritin heavy chain; assay: Induction of ferritin heavy chain mRNA (qPCR); assay type: cell-based, human; settings: MDA-MB-435 cells, 16 hours
# Description: FIG. 24. Induction of Ferritin Heavy Chain. MDA-MB-435 human melanoma cells were treated with vehicle (DMSO) or the indicated compounds and concentrations for 16 hours. Ferritin heavy chain mRNA levels were quantified using qPCR and were normalized relative to a DMSO-treated sample run in parallel. Values are averages of duplicate wells.
# as §2
# [6] = CNS and lung tissue concentrations after oral dosing in monkeys; assay type: in vivo; settings: cynomolgus monkey; for excess of mean CNS concentration compared to the dose necessary to suppress inflammation in vitro: vs NO IC50 about 45 nM; for Mean 404-02 CNS Tissue Content (ng/g) ± SEM: day 15, about 3 h after dosing; for Mean 404-02 CNS Tissue Concentration (nM) ± SEM: conversion assumes tissue density 1 g/mL
# Description: CNS and lung concentrations following oral dosing: 2 male and 2 female cynomolgus monkeys were administered 404-02 at 0.5, 5, 25 or 75 mg/kg/day doses via oral gavage, in addition to a control (non-treatment) group with 2 animals per sex. Animals were sacrificed approximately 3 hours after dosing on day 15 following harvest of brain and lung tissues. Each sample collected was rinsed in 1× isotonic phosphate buffered saline and blotted dry before weighing. Harvested tissue slices were transferred to cryovials and stored at −80° C. until processing and LC-MS/MS analysis. Standard curves were derived for 404-02 in homogenates of these tissues and were used to quantify the day 15 samples.
# [7] = oral gavage, 0.5 mg/kg/day, day 15
# [8] = oral gavage, 5 mg/kg/day, day 15
# [9] = oral gavage, 25 mg/kg/day, day 15
# [10] = oral gavage, 75 mg/kg/day, day 15
smiles,measurement,setting,value
"CC1(C)CC[C@]2(C(=O)NCC(F)(F)F)CC[C@]3(C)[C@H](C(=O)C[C@@H]4[C@@]5(C)C=C(C#N)C(=O)C(C)(C)[C@@H]5CC[C@]43C)[C@@H]2C1 [Compound 63102, (4aS,6aR,6bR,8aR,12aR,12bR,14aR,14bS)-11-cyano-2,2,6a,6b,9,9,12a-heptamethyl-10,14-dioxo-N-(2,2,2-trifluoroethyl)-1,2,3,4,4a,5,6,6a,6b,7,8,8a,9,10,12a,12b,13,14,14a,14b-icosahydropicene-4a-carboxamide]",IC50,[1],> 200 nM
same,HO-1 induction,[2],3 fold
same,γ-GCS induction,"[3]; 250 nM, fold induction above DMSO control",4.5 fold
same,"γ-GCS mRNA induction: concentration needed compared with unsaturated counterpart (402, 404)",[3]; 16 hours,higher concentrations
same,NQO1 induction,[4],2 fold
same,"Ferritin heavy chain mRNA induction: concentration needed compared with unsaturated counterpart (402, 404)",[5],higher concentrations
same,concentration at 3 h,"[6]; both sexes, lung, oral gavage, 25 mg/kg/day, day 15, read-out: Mean 404-02 Lung Tissue Concentration (nM) ± SEM",246 ± 87 nM
same,excess of mean CNS concentration compared to the dose necessary to suppress inflammation in vitro,[6]; 0.5 mg/kg/day,48 fold
same,excess of mean CNS concentration compared to the dose necessary to suppress inflammation in vitro,[6]; 5 mg/kg/day,44 fold
same,excess of mean CNS concentration compared to the dose necessary to suppress inflammation in vitro,[6]; 25 mg/kg/day,37 fold
same,increase of mean lung tissue exposure compared to the dose necessary to suppress inflammation in vitro,[6]; 75 mg/kg/day,133 fold
same,excess of mean CNS concentration compared to the dose necessary to suppress inflammation in vitro,[6]; 75 mg/kg/day,75 fold
same,Mean 404-02 Lung Tissue Concentration (nM) ± SEM,[6]; [7],1227 ± 508 nM
same,Mean 404-02 Lung Tissue Content (ng/g) ± SEM,[6]; [7],705 ± 292 ng/g
same,Mean 404-02 CNS Tissue Content (ng/g) ± SEM,"[6]; oral gavage, 0.5 mg/kg/day",1198 ± 712 ng/g
same,Mean 404-02 Lung Tissue Concentration (nM) ± SEM,[6]; [8],55 ± 27 nM
same,Mean 404-02 Lung Tissue Content (ng/g) ± SEM,[6]; [8],24 ± 15 ng/g
same,Mean 404-02 CNS Tissue Content (ng/g) ± SEM,"[6]; oral gavage, 5 mg/kg/day",1090 ± 564 ng/g
same,Mean 404-02 CNS Tissue Concentration (nM) ± SEM,[6]; [8],1900 ± 982 nM
same,Mean 404-02 Lung Tissue Content (ng/g) ± SEM,[6]; [9],141 ± 50 ng/g
same,Mean 404-02 CNS Tissue Content (ng/g) ± SEM,"[6]; oral gavage, 25 mg/kg/day",930 ± 352 ng/g
same,Mean 404-02 CNS Tissue Concentration (nM) ± SEM,[6]; [9],1618 ± 612 nM
same,Mean 404-02 Lung Tissue Concentration (nM) ± SEM,[6]; [10],5929 ± 1435 nM
same,Mean 404-02 Lung Tissue Content (ng/g) ± SEM,[6]; [10],3405 ± 824 ng/g
same,Mean 404-02 CNS Tissue Content (ng/g) ± SEM,"[6]; oral gavage, 75 mg/kg/day",1898 ± 496 ng/g
same,Mean 404-02 CNS Tissue Concentration (nM) ± SEM,[6]; [10],3305 ± 864 nM
